Earlier results on two compounds are cited in patent publication US20050065094A1, “Use of telmisartan for the prevention and treatment of vascular headache” (Boehringer Ingelheim International GmbH, priority 2003, published 2005).

Each structure is given as a SMILES string.

Data set [1] concerns patients suffering from migraine. The conditions noted are these: placebo-controlled crossover.
In data set [2] the test system is patients having mild/moderate hypertension. The following applies: placebo-controlled.

As to `CCOc1nc2cccc(C(=O)O)c2n1Cc1ccc(-c2ccccc2-c2nnn[nH]2)cc1` [candesartan], the tolerability profile entry in data set [1] is given as “good tolerability profile”.

On to `CCCCC1=NC2(CCCC2)C(=O)N1Cc1ccc(-c2ccccc2-c2nnn[nH]2)cc1` [irbesartan], for which the incidence of headache entry in data set [2] is “significant reduction in the incidence of headache”.
